Legend:
Format in all cases: cell-based
[1] = system: ATCC25922 strain (Escherichia coli); test: Checkerboard antibacterial synergistic activity test with polymyxin E (FIC); parameters: key: FIC≤0.5 synergy; 0.5–1 additive; 1–2 indifferent; ≥2 antagonism; settings: combined with polymyxin E
Procedure: (§1) Polymyxin E was diluted in sterile MH broth medium to concentrations of 16, 8, 4, 2, 1, 0.5, 0.25, 0.125, 0.0625, 0.031, and 0.015 μg/ml, and the drug to be tested was diluted to concentrations of 256, 128, 64, 32, 16, 8, and 4 μg/ml. According to the checkerboard method, combinations of the drug to be tested and polymyxin at different concentrations in ascending order were placed into a 96-well plate, and corresponding blank control groups were set up. 50 μl of the drug solution was added to each well, then 100 μl of bacterial liquid was added, and incubated in a 37° C. incubator for 16 hours. […] Calculation and judgment criteria:
(§2) Fractional Inhibitory Concentration (FIC) is calculated as follows: […]
(§3) Judgment criteria: FIC≤0.5: synergistic effect; 0.5<FIC<1: additive effect; 1<FIC<2: indifferent effect; FIC≥2: antagonistic effect.
(§4) In the table: ATCC19606 strain is Acinetobacter baumannii, ATCC25922 strain is Escherichia coli, ATCC13883 strain is Klebsiella pneumoniae, ATCC9027 strain is Pseudomonas aeruginosa. All four strains were purchased from ATCC.

[2] = system: ATCC13883 strain (Klebsiella pneumoniae); test: as above; parameters: key: FIC≤0.5 synergy; 0.5–1 additive; 1–2 indifferent; ≥2 antagonism; settings: combined with polymyxin E
Procedure: as §1, §2, §3, §4

[3] = system: ATCC19606 strain (Acinetobacter baumannii); test: as above; parameters: key: FIC≤0.5 synergy; 0.5–1 additive; 1–2 indifferent; ≥2 antagonism; settings: combined with polymyxin E
Procedure: as §1, §2, §3, §4

[4] = system: ATCC9027 strain (Pseudomonas aeruginosa); test: as above; parameters: key: FIC≤0.5 synergy; 0.5–1 additive; 1–2 indifferent; ≥2 antagonism; settings: combined with polymyxin E
Procedure: as §1, §2, §3, §4

[5] = system: ATCC25922 strain (Escherichia coli); test: Broth microdilution, antibacterial activity of the compound used alone
Source text: (§5) The broth microdilution method was used to test the antibacterial effects of the compounds of the present invention against various Gram-negative bacterial strains when used alone.

[6] = system: ATCC13883 strain (Klebsiella pneumoniae); test: as above
Source text: as §5

[7] = system: ATCC19606 strain (Acinetobacter baumannii); test: as above
Source text: as §5

[8] = system: ATCC9027 strain (Pseudomonas aeruginosa); test: as above
Source text: as §5

Compound | Synergistic activity (FIC value) ATCC25922 [1] | Synergistic activity (FIC value) ATCC13883 [2] | Synergistic activity (FIC value) ATCC19606 [3] | Synergistic activity (FIC value) ATCC9027 [4] | Antibacterial activity of the compound of Formula I, ATCC25922 [5] | Antibacterial activity of the compound of Formula I, ATCC13883 [6] | Antibacterial activity of the compound of Formula I, ATCC19606 [7] | Antibacterial activity of the compound of Formula I, ATCC9027 [8]
CC(C)c1cc(-c2coc(N=C(N)N)n2)cc(C(C)C)c1O [Compound I-19] | 0.38 | 0.31 | 0.12 | 0.31 | 256 µg/mL | 256 µg/mL | 256 µg/mL | 256 µg/mL
NC(N)=Nc1nc(-c2ccccc2[N+](=O)[O-])c[nH]1 [Compound I-20] | 0.5 | 0.63 | 0.75 | 0.56 | 256 µg/mL | 256 µg/mL | 256 µg/mL | 256 µg/mL
N#Cc1cccc(-c2csc(N=C(N)N)n2)c1 [Compound I-21] | 0.63 | 0.52 | 0.52 | 1.25 | 128 µg/mL | 128 µg/mL | 256 µg/mL | 64 µg/mL
C[Si](C)(C)c1ccc(-c2csc(N=C(N)N)n2)cc1 [Compound I-22] | 0.5 | 0.38 | 0.75 | 0.63 | 256 µg/mL | 256 µg/mL | 256 µg/mL | 256 µg/mL
CNc1cc(C)cc(-c2csc(N=C(N)N)n2)c1 [Compound I-23] | 0.63 | 0.52 | 0.52 | 1.25 | 256 µg/mL | 256 µg/mL | 256 µg/mL | 256 µg/mL
CC(=O)c1ccc(-c2csc(N=C(N)N)n2)cc1 [Compound I-24] | 1.25 | 1.25 | 0.5 | 1.25 | 256 µg/mL | 256 µg/mL | 256 µg/mL | 256 µg/mL
CCOC(=O)c1ccc(-c2c[nH]c(N=C(N)N)n2)cc1 [Compound I-25] | 0.38 | 0.31 | 0.13 | 0.53 | 256 µg/mL | 256 µg/mL | 256 µg/mL | 256 µg/mL
CSc1ccccc1-c1csc(N=C(N)N)n1 [Compound I-26] | 0.63 | 1.25 | 0.5 | 1.25 | 256 µg/mL | 256 µg/mL | 256 µg/mL | 256 µg/mL
C[S+]([O-])c1cccc(-c2csc(N=C(N)N)n2)c1 (stereo not drawn) [Compound I-27] | 1.25 | 1.25 | 0.51 | 1.25 | 256 µg/mL | 256 µg/mL | 256 µg/mL | 256 µg/mL
CS(=O)(=O)Oc1ccc(-c2coc(N=C(N)N)n2)cc1 [Compound I-28] | 1.25 | 1.25 | 1.25 | 0.51 | 256 µg/mL | 256 µg/mL | 256 µg/mL | 256 µg/mL
NC(N)=Nc1nc(-c2ccc(OS(N)(=O)=O)cc2)co1 [Compound I-29] | 1.25 | 1.25 | 0.26 | 1.25 | 256 µg/mL | 256 µg/mL | 256 µg/mL | 256 µg/mL
CC(=O)N(C)c1cccc(-c2csc(N=C(N)N)n2)c1 [Compound I-30] | 0.52 | 0.19 | 0.13 | 1.25 | 256 µg/mL | 256 µg/mL | 256 µg/mL | 256 µg/mL
NC(N)=Nc1nc(-c2cccc(NC(=O)NC3CC3)c2)cs1 [Compound I-31] | 0.56 | 0.31 | 0.25 | 0.5 | 256 µg/mL | 256 µg/mL | 256 µg/mL | 256 µg/mL
CS(=O)(=O)Nc1cccc(-c2csc(N=C(N)N)n2)c1 [Compound I-32] | 1.25 | 1.25 | 0.25 | 0.52 | 256 µg/mL | 256 µg/mL | 256 µg/mL | 256 µg/mL
NC(N)=Nc1nc(-c2ccc(I)cc2)cs1 [Compound I-33] | 0.5 | 0.25 | 0.28 | 0.63 | 256 µg/mL | 256 µg/mL | 256 µg/mL | 256 µg/mL
NC(N)=Nc1nc(-c2cc(I)cc(I)c2)c[se]1 [Compound I-34] | 1.25 | 1.25 | 0.75 | 1.25 | 256 µg/mL | 256 µg/mL | 256 µg/mL | 256 µg/mL
NC(N)=Nc1nc(-c2cc(I)c(O)c(I)c2)co1 [Compound I-35] | 0.52 | 0.19 | 0.13 | 1.25 | 256 µg/mL | 256 µg/mL | 256 µg/mL | 256 µg/mL
NC(N)=Nc1nc(-c2ccccc2Cl)c[nH]1 [Compound I-36] | 0.56 | 0.31 | 0.25 | 0.5 | 128 µg/mL | 128 µg/mL | 256 µg/mL | 64 µg/mL
